Measurements published in the NIST ThermoML archive (doi:10.1016/j.fluid.2012.11.030).
± gives the expanded uncertainty stated by the source.

Legend:
[1] = Molar enthalpy of transition or fusion; conditions: Crystal; DSC
[2] = Crystal; DTA

| Molar enthalpy of transition or fusion [1] [kcal/mol] | Normal melting temperature [2] [°C] | SMILES |
| --- | --- | --- |
| 11.4 ± 0.311 | -19.06 ± 0.7 | CCCCCCCC/C=C\CCCCCCCC(=O)OCC [ethyl (Z)-9-octadeceneoate] |
| 9.52 ± 0.263 | 0.1 ± 0.7 | CCCCCCCCCCCC(=O)OCC [ethyl dodecanoate] |
| 13.3 ± 0.359 | 25.08 ± 0.7 | CCCCCCCCCCCCCCCC(=O)OCC [ethyl hexadecanoate] |
